Paper PMC9516332 (Frontiers in Oncology, 2022)
Read-outs that look alike come from different tables or passages of the source.

Key:
Assay in all cases: Kinase panel profiling at 1 µmol/L (MSA or IMAP), percentage inhibition
Format in all cases: biochemical
[1] = molecular target: T1, panel of 255 wild-type kinases (Homo sapiens, UniProt O15264); details: read-out: %-inhibition, p38δ
T1 sequence (O15264 1-365): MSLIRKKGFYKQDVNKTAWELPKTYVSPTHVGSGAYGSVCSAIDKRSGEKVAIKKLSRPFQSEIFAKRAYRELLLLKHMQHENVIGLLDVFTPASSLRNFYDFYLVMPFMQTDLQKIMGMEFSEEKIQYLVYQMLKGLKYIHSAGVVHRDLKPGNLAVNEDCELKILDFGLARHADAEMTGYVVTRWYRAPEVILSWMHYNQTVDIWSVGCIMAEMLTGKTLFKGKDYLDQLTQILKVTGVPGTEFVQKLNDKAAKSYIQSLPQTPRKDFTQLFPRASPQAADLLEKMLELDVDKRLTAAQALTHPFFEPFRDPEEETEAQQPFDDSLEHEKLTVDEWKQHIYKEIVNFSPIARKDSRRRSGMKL

[2] = molecular target: panel of 255 wild-type kinases (Homo sapiens, UniProt P27361); details: read-out: %-inhibition at 1 µmol/L, Erk1
[3] = molecular target: panel of 255 wild-type kinases (Homo sapiens, UniProt Q13554); details: read-out: %-inhibition CaMK2β
[4] = molecular target: panel of 255 wild-type kinases (Homo sapiens, UniProt Q16654); details: read-out: %-inhibition at 1 µmol/L, PDHK4
[5] = molecular target: T2, panel of 255 wild-type kinases (Homo sapiens, UniProt Q8IWQ3); details: read-out: %-inhibition BRSK2
T2 sequence (Q8IWQ3 1-736): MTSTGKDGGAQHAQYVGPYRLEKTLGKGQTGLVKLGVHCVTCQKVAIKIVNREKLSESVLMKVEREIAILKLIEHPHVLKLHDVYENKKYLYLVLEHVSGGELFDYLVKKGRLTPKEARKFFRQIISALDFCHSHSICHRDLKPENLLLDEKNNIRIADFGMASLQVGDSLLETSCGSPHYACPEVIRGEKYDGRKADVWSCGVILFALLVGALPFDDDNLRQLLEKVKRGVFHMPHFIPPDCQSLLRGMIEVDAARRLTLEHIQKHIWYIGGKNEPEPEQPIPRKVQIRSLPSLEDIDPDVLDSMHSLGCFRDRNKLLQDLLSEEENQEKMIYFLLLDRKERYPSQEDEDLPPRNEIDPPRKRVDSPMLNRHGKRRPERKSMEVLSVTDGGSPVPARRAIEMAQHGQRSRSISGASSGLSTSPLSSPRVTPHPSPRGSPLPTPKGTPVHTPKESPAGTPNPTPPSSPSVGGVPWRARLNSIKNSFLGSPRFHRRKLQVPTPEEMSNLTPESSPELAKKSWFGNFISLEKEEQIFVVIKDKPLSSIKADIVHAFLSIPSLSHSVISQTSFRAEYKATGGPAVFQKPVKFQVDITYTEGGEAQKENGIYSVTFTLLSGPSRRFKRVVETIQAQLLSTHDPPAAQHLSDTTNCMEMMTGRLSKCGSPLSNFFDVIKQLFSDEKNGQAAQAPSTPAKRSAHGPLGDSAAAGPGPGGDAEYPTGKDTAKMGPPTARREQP

[6] = molecular target: T3, panel of 255 wild-type kinases (Homo sapiens, UniProt Q92630); details: read-out: %-inhibition at 1 µmol/L, DYRK2
T3 sequence (Q92630 1-601): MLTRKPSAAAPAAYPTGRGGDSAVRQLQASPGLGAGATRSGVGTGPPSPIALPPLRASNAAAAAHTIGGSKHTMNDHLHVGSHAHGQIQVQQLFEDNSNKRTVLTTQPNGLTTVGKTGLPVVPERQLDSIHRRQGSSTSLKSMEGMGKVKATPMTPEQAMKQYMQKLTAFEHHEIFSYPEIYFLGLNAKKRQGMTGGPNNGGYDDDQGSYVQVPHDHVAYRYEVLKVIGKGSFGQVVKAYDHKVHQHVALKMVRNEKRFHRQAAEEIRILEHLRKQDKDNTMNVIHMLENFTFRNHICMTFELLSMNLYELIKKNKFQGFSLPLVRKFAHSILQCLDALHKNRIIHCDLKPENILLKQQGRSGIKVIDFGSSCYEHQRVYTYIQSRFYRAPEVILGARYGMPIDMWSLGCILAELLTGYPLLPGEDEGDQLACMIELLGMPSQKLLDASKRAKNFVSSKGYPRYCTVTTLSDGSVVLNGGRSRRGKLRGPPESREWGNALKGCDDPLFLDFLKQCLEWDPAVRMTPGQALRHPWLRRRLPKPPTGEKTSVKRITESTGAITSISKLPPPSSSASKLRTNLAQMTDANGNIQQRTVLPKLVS

[7] = molecular target: panel of 255 wild-type kinases (Homo sapiens, UniProt Q96GD4); details: read-out: %-inhibition AurB
[8] = molecular target: T4, panel of 255 wild-type kinases (Homo sapiens, UniProt Q9BXA7); details: read-out: %-inhibition at 1 µmol/L, TSSK1
T4 sequence (Q9BXA7 1-367): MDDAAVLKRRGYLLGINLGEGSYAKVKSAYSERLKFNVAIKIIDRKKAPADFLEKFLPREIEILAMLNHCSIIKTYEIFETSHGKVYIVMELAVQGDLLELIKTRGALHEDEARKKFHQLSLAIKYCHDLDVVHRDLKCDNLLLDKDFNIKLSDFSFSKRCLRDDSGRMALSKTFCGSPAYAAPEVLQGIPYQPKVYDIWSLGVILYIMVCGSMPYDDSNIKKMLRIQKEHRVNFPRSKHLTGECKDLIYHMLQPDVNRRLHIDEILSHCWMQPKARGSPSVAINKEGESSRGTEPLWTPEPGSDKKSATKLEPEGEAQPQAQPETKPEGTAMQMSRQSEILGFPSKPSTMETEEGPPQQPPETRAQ

[9] = molecular target: panel of 255 wild-type kinases (Homo sapiens, UniProt Q9H2G2); details: read-out: %-inhibition at 1 µmol/L, SLK
[10] = molecular target: panel of 255 wild-type kinases (Homo sapiens, UniProt Q9NYA1); details: read-out: %-inhibition at 1 µmol/L, SPHK1
[11] = p38δ, 1 µmol/L single concentration
[12] = kinase Erk1, 1 µmol/L single concentration
[13] = CaMK2β kinase assay, 1 µmol/L single concentration
[14] = kinase PDHK4, 1 µmol/L single concentration
[15] = BRSK2 kinase assay, 1 µmol/L single concentration
[16] = kinase DYRK2, 1 µmol/L single concentration
[17] = AurB kinase assay, 1 µmol/L single concentration
[18] = kinase TSSK1, 1 µmol/L single concentration
[19] = kinase SLK, 1 µmol/L single concentration
[20] = kinase SPHK1, 1 µmol/L single concentration

Row | inhibition at 1 µM [1, 11] | inhibition at 1 µM [2, 12] | inhibition at 1 µM [3, 13] | inhibition at 1 µM [4, 14] | inhibition at 1 µM [5, 15] | inhibition at 1 µM [6, 16] | inhibition at 1 µM [7, 17] | inhibition at 1 µM [8, 18] | inhibition at 1 µM [9, 19] | inhibition at 1 µM [10, 20] | Compound | inhibition at 1 µM [1] | inhibition at 1 µM [2] | inhibition at 1 µM [3] | inhibition at 1 µM [4] | inhibition at 1 µM [5] | inhibition at 1 µM [6] | inhibition at 1 µM [7] | inhibition at 1 µM [8] | inhibition at 1 µM [9] | inhibition at 1 µM [10]
1 | -4% | -4.67% | -0.923% | 0.425% | 4% | -2.7% | 12% | 0.947% | 8% | -8% | Cn1cnc2c(F)c(Nc3ccc(Br)cc3Cl)c(C(=O)NOCCO)cc21 [selumetinib] | – | – | – | – | – | – | – | – | – | –
2 | -6.33% | -7.44% | 1.27% | -2.71% | 35% | 66% | 79% | 45% | 14% | -13% | COc1ccc(CN2C3CC2CN(c2ccc(-c4cc(OCC(C)(C)O)cn5ncc(C#N)c45)cn2)C3)cn1 [selpercatinib] | – | – | – | – | – | – | – | – | – | –
3 | -7% | -14% | 0.902% | 2% | 0.485% | 6% | -4.57% | 4% | 5.58% | -16% | O=C(Nc1cnn2ccc(N3CCC[C@@H]3c3cc(F)ccc3F)nc12)N1CC[C@H](O)C1 [larotrectinib] | – | – | – | – | – | – | – | – | – | –
4 | 0.0555% | -3% | -0.895% | 12% | 14% | -0.768% | 38% | 4.54% | 17% | 0.199% | CO[C@]1(C(=O)N[C@@H](C)c2ccc(-n3cc(F)cn3)nc2)CC[C@H](c2nc(C)cc(Nc3cc(C)[nH]n3)n2)CC1 [pralsetinib] | – | – | – | – | – | – | – | – | – | –
5 | -0.0555% | -2.6% | 1.33% | 7.57% | 7% | 8.45% | -0.568% | 2.58% | 11% | -6.37% | Cc1cc(Nc2ncnc3ccc(NC4=NC(C)(C)CO4)cc23)ccc1Oc1ccn2ncnc2c1 [tucatinib] | – | – | – | – | – | – | – | – | – | –

Second part, the molecule before the results:

Row | Compound | inhibition at 1 µM [1, 11] | inhibition at 1 µM [2, 12] | inhibition at 1 µM [3, 13] | inhibition at 1 µM [4, 14] | inhibition at 1 µM [5, 15] | inhibition at 1 µM [6, 16] | inhibition at 1 µM [7, 17] | inhibition at 1 µM [8, 18] | inhibition at 1 µM [9, 19] | inhibition at 1 µM [10, 20] | inhibition at 1 µM [1] | inhibition at 1 µM [2] | inhibition at 1 µM [3] | inhibition at 1 µM [4] | inhibition at 1 µM [5] | inhibition at 1 µM [6] | inhibition at 1 µM [7] | inhibition at 1 µM [8] | inhibition at 1 µM [9] | inhibition at 1 µM [10]
6 | CCN1C(=O)N(c2c(F)c(OC)cc(OC)c2F)Cc2cnc3[nH]c(CN4CCOCC4)cc3c21 [pemigatinib] | -6% | -8.52% | 9% | -4% | 3.17% | 12% | 2.32% | 8% | 0.681% | -13% | – | – | – | – | – | – | – | – | – | –
7 | CNC(=O)c1ccc(-c2cnc3ncc(Cc4ccc5ncccc5c4)n3n2)cc1F [capmatinib] | – | – | – | – | – | – | – | – | – | – | -4% | 2.84% | 0.692% | 0.789% | 1% | 8% | 4.24% | 3% | 7.55% | -5.27%
8 | FC(F)(F)c1ccc(CNc2ccc(Cc3c[nH]c4ncc(Cl)cc34)cn2)cn1 [pexidartinib] | 1.15% | 2.66% | 3% | 4.63% | 5.28% | 24% | 60% | 12% | 11% | -5% | – | – | – | – | – | – | – | – | – | –
9 | C[C@H](Nc1ncnc2nc[nH]c12)c1cc2cccc(Cl)c2c(=O)n1-c1ccccc1 [duvelisib] | -3% | 2.77% | -7.37% | 3% | 11% | 8% | 0.417% | -4% | 7.44% | -3.25% | – | – | – | – | – | – | – | – | – | –
10 | Cn1cnc2c(F)c(Nc3ccc(Br)cc3F)c(C(=O)NOCCO)cc21 [binimetinib] | 3.49% | -4.32% | 2.18% | -0.429% | -13% | 6.52% | -3.18% | 0.849% | 3.27% | -26% | – | – | – | – | – | – | – | – | – | –
11 | Cc1nc(NC(=O)N2CCC[C@H]2C(N)=O)sc1-c1ccnc(C(C)(C)C(F)(F)F)c1 [alpelisib] | -4.21% | -0.813% | -7% | 0.0757% | 14% | 7% | -4.26% | -5% | 8% | -5.44% | – | – | – | – | – | – | – | – | – | –
12 | C=CC(=O)N1CCC([C@@H]2CCNc3c(C(N)=O)c(-c4ccc(Oc5ccccc5)cc4)nn32)CC1 [zanubrutinib] | -6.43% | -9% | 2.44% | 0.136% | 0.0746% | 13% | -4% | 2.13% | 2.36% | -15% | – | – | – | – | – | – | – | – | – | –
13 | CCN1CCN(c2ccc(Nc3cc(N(C)C(=O)Nc4c(Cl)c(OC)cc(OC)c4Cl)ncn3)cc2)CC1 [infigratinib] | -4% | -4% | – | -1.46% | 2.65% | -3.43% | -5% | 3.24% | 16% | -14% | – | – | – | – | – | – | – | – | – | –
